Test results as given in patent publication US12433869B2, “Preventing and treating malaria” (priority 2019, dated 2025).

Legend:
[1] = system: RBC membrane permeability to water; test: Cell scan of whole blood contacted with agents (Example 2), Pk0 measured; type: cell-based, human; conditions: for Pk0: whole blood of healthy volunteer in ACD, agent at the concentration listed in Table 1
Method: A sample of whole blood from a healthy volunteer was drawn into ACD anticoagulant. The unwashed sample was divided into aliquots and was analyzed using the Prior Shine Technology and/or the Provided Cell Scanning Technologies. The following outputs were obtained from the sample:
Using the technologies described herein, a cell-by-cell analysis was converted into a plot of percent change of cell volume vs. osmolality (“Cell Scan Plot”) by converting the individual peak voltage into a cell volume, then calculating a mean volume for an aliquot of cells, and plotting the means to generate the Cell Scan Plot. The percentage change of cell volume at each osmolality is calculated and compared to the mean cell volume of an isotonic cell (e.g., FIG. 1b). On such a plot, Pk0 (see 101) is the osmotic pressure at which the net water flow is zero (i.e., when a cell achieved its maximum volume, i.e., when it is a perfect sphere).
A sample of whole blood from a healthy volunteer was drawn into ACD anticoagulant. Blood samples were divided into aliquots, and each sample was contacted with an agent at concentrations consistent with the agent's in vivo concentration. […] Five minutes after exposure to an agent, the blood sample was evaluated for cell membrane permeability and Pk0 was measured.

[2] = system: RBC membrane permeability; test: Effect of 5-HT on cell membrane permeability of healthy RBCs (Example 3); type: cell-based, human
Method: A sample of whole blood from a healthy volunteer was drawn into ACD anticoagulant. The sample was then treated with 5-HT (900 ng/mL), and cell membrane permeability was evaluated 5 minutes after treatment.

| Structure (SMILES) | Pk0 [1] [mOsm/kg] | Pk0 after treatment ([2]; 5-HT 900 ng/mL, 5 minutes after treatment, normal Pk0 approx. 140 before) | Pk0 shift after contacting with 5-HT ([2]; FIG. 5, RBCs of normal healthy individual) | Pk0 lowered to ([1]; after 10 minutes) [mOsm/kg] |
| --- | --- | --- | --- | --- |
| NCCc1c[nH]c2ccc(O)cc12 [Agent 5-HT, 5-hydroxytryptamine] | 110 | approx. 110 mOsm/kg | approx. 30 mOsm/kg |  |
| C[C@@H]1[C@H](O)[C@@H](C)/C=C/C=C/C=C/C=C/C=C/C=C/C=C/[C@H](O[C@@H]2O[C@H](C)[C@@H](O)[C@H](N)[C@@H]2O)C[C@@H]2O[C@](O)(C[C@@H](O)C[C@@H](O)[C@H](O)CC[C@@H](O)C[C@@H](O)CC(=O)O[C@H]1C)C[C@H](O)[C@H]2C(=O)O [Amphotericin B] | 85 |  |  |  |
| OC[C@H]1O[C@@H](O[C@H]2[C@H](O)[C@@H](O)C(O)O[C@@H]2CO)[C@H](O)[C@@H](O)[C@H]1O (some centres unmarked) [Lactose] |  |  |  | 100 |
